The values that follow come from patent US5312923A, “Process for preparing fibrinogen receptor antagonists” (Merck & Co., Inc., priority 1993, dated 1994).

For the test, the system named is ADP-stimulated platelets. Briefly: Inhibition of ADP-stimulated platelet aggregation (gel-filtered human platelets). The note with it: read-out: IC50 (concentration required to inhibit aggregation by 50% relative to a control lacking the compound), gel-filtered human platelets 2×10^8 per ml, fibrinogen 100 ug/ml, Ca^2+ 1 mM, 10 mM ADP, 37° C. It is filed as cell-based. The protocol: The activity of these fibrinogen receptor antagonists is illustrated below. One test used to evaluate fibrinogen receptor antagonist activity is based on evaluation of inhibition of ADP-stimulated platelets. Aggregation requires that fibrinogen bind to and occupy the platelet fibrinogen receptor site. Inhibitors of fibrinogen binding inhibit aggregation. […] Platelet aggregation is measured at 37° C. in a Chronolog aggregometer. The reaction mixture contains gel-filtered human platelets (2×10^8 per ml), fibrinogen (100 micrograms per ml (ug/ml)), Ca^2+ (1 mM), and the fibrinogen receptor antagonists tested. The aggregation is initiated by adding […] ADP 1 minute after the other components are added. The reaction is then allowed to proceed for at least 2 minutes. The extent of inhibition of aggregation is expressed as the percentage of the rate of aggregation observed in the absence of inhibitor. […] Inhibition of ADP-stimulated platelets is shown below in Table 1, which compares the concentration (dosage) of fibrinogen receptor antagonist required to inhibit aggregation by 50% relative to a control lacking the fibrinogen receptor antagonist.

Consider `CCCCS(=O)(=O)N[C@@H](Cc1ccc(OCCCCC2CCNCC2)cc1)C(=O)O`, for which the IC50 came out at 15 nM. The value for `O=C(O)[C@H](Cc1ccc(OCCCCC2CCNCC2)cc1)NS(=O)(=O)Cc1ccccc1` was 18 nM. The value for `O=C(O)[C@H](Cc1ccc(OCCCCC2CCNCC2)cc1)NS(=O)(=O)c1ccccc1` was 18 nM. The value for `O=C(O)[C@H](Cc1ccc(OCCCCC2CCNCC2)cc1)NS(=O)(=O)CCc1ccccc1` was 29 nM; that for `CS(=O)(=O)N[C@@H](Cc1ccc(OCCCCC2CCNCC2)cc1)C(=O)O` was 63 nM.
